# From patent EP0348509B1, “ANTI-RETROVIRAL DRUG” (TSUMURA & CO., priority 1987, dated 1989)
# Columns and labels:
# HIV = test: Inhibition of modification of HIV-infected MT-2 cells (living cell count after 1 week); format: cell-based; conditions: 5 µg/ml added; MT-2 cells infected with HIV; living cells counted after 1 week
# Method: MT-2 cells were cultured at a concentration of 3 x 10⁴ cells/ml in a culture medium of RPMI 1640 (supplied by Gibco Co.) containing 10% FCS (supplied by Gibco Co.). After 2 days, the MT-2 cells were infected with HIV at a ratio of 200 cells per HIV, were distributed into groups to which 5 µg/ml of baicalein, quercetin or hesperetin was added and non-added groups (control groups), and the effect of the addition was determined.
# [1] = test system: male mice of the ddY line; test: Acute toxicity by oral administration, mice; format: in vivo; conditions: dose of 1 g/kg
# [2] = test system: male rats of the Wistar line; test: Acute toxicity by oral administration, rats; format: in vivo; conditions: dose of 1 g/kg
# Reverse transcriptase = test: Inhibition of reverse transcriptase activity ([3H]dTTP incorporation into acid-insoluble fraction)
# Method: OF TOKYO PRESS TOKYO/KARGER, BASEL, pp. 603-605 (1975)], and then a reaction mixture liquid having the following composition was prepared.
# By "1 unit" is meant the unit of the relative activity of the reverse transcriptase required to consume 1 nmol of dNTP (deoxynucleic acid phosphate at 37°C for 1 hour.
# Then the dry extract powder obtained in the above-mentioned Specific Example, baicalein, baicalin, quercetin or hesperetin and refined water were added to 20 ml of the above-mentioned reaction mixture liquid so that the total volume was 50 µl, the incorporation of the radioactivity of [³H]dTTP into the acid-insoluble fraction was measured by a Beckmann scintillation counter, and the percent inhibition was calculated as the reverse transcriptase activity with respect to each concentration.
# RSV. SR-A strain = test: Focus formation by RSV in primary chicken embryo fibroblasts; format: cell-based; conditions: Rous sarcoma virus, Fibroblast, 192 h, number of foci, 8 days, read-out: IC₅₀
# Method: A 24-well microplate was charged with 3.5 x 10⁵ cells per well of primary chicken embryo fibroblasts, and the fibroblasts were cultured at 37°C in an atmospher of 5% CO₂ for 6 hours. Then an RSV. SR-A strain having an infection multiplicity (M.O.I.) of about 2.0 x 10⁻⁴ and the test substance were added, and culturing was continued for further 2 hours. The cells were washed and the test substance and an agar culture medium were added, and then culturing was continued at 37°C in an atmospher of 5% CO₂ for further 8 days. The number of foci was counted, and the results are shown as IC₅₀ in Table 6.
# HTLV-1 = HTLV-1 production by MT-2 cells (RNA hybridization with 32P-labelled HTLV-1 cDNA); format: cell-based; conditions: 4 days, compared with control
# Method: The test substance and 1 x 10⁵ cells per well of MT-2 cells were charged in a 24-well microplate, and culturing was conducted for 4 days. Then the MT-2 cell suspension in each well was subjected to centrifugal separation, and the supernatant was extracted with phenol to obtain RNA of HTLV-1. This RNA and a known amount of HTLV-1 cDNA were plotted on a nitrocellulose paper, a comparative determination was carried out according to the hybridization using ³²P-labelled HTLV-1 cDNA, and the hydridization rate by the test substance was calculated by comparing the amount of the produced virus with that of the control.
# The results are shown as the hybridization rate (%) in Table 7.
# [3] = intravenous administration; species not given; cited from earlier work
SMILES,modification of MT-2 cells with HIV was inhibited at a ratio (HIV),acute toxicity (death) [1],acute toxicity (death) [2],Percent inhibition (%) (Reverse transcriptase; concentration 1 µg/ml),Percent inhibition (%) (Reverse transcriptase; concentration 2 µg/ml),Percent inhibition (%) (Reverse transcriptase; concentration 5 µg/ml),Percent inhibition (%) (Reverse transcriptase; concentration 10 µg/ml),Percent inhibition (%) (Reverse transcriptase; concentration 20 µg/ml),further results
O=c1cc(-c2ccccc2)oc2cc(O)c(O)c(O)c12 [baicalein],at least 90%,no animal died,no animal died,92,98,100,100,100,Percent inhibition (%) (Reverse transcriptase; concentration 0.1 µg/ml): 29%; Percent inhibition (%) (Reverse transcriptase; concentration 0.2 µg/ml): 35%; Percent inhibition (%) (Reverse transcriptase; concentration 0.5 µg/ml): 74%
O=C1c2ccccc2C(=O)c2c1cc(S(=O)(=O)O)c(O)c2O [Alizarine Red S],,,,,,,,,IC50 (RSV. SR-A strain): 2.1 µg/mL; Hybridization Rate (%) (HTLV-1; Amount Added 20 µg/ml): 61.7%; LD₅₀ [3]: 70 mg/kg
O=C(O)CN(CC(=O)O)Cc1cc2c(c(O)c1O)C(=O)c1ccccc1C2=O [alizarin complexon],,,,,,,,,IC50 (RSV. SR-A strain): 4.3 µg/mL
O=C1c2ccccc2C(=O)c2c(O)c(O)cc(O)c21 [purpurin],,,,,,,,,Hybridization Rate (%) (HTLV-1; Amount Added 5 µg/ml): 61.3%
O=c1c(O)c(-c2ccc(O)c(O)c2)oc2cc(O)cc(O)c12 [quercetin],at least 90%,no animal died,no animal died,77,96,99,100,100,Percent inhibition (%) (Reverse transcriptase; concentration 50 µg/ml): 100%
COc1ccc([C@@H]2CC(=O)c3c(O)cc(O)cc3O2)cc1O [hesperetin],at least 90%,no animal died,no animal died,99,100,100,100,100,Percent inhibition (%) (Reverse transcriptase; concentration 50 µg/ml): 100%
O=C(O)[C@H]1O[C@@H](Oc2cc3oc(-c4ccccc4)cc(=O)c3c(O)c2O)[C@H](O)[C@@H](O)[C@@H]1O [baicalin],,no animal died,no animal died,19,27,73,90,100,
"O=C1c2ccccc2C(=O)c2c1ccc(O)c2O [alizarin, 1,2-dihydroxyanthraquinone]",,,,,,,,,LD₅₀ [3]: 120 mg/kg
